Ends that are not written are not given here.
Legend:
MEFs = experiment: Mitochondrial fusion by mixing of organellar contents after PEG-mediated cell fusion; type: cell-based, murine; conditions: 1 μM for 6 hours
Procedure: MEFs or neurons were grown on chamber slides and infected with recombinant adenoviri for 48-72 hours unless otherwise indicated. MEFs were stained with MitoTracker Green (200 nM, Invitrogen M7514) and Blue Hoechst (10 mg/ml, Invitrogen H3570), with or without tetramethylrhodamine ethyl ester (TMRE; 200 nM, Invitrogen T-669). Neuronal mitochondria were labeled with adenoviral-expressed mitoGFP plus TMRE, or with adeno-mitoDsRed for time-lapse studies. […] Mitochondrial fusion was measured at 2 and 6 hours after PEG-mediated cell fusion of MEFs treated 48 hours previously with adeno-mitoGFP or adeno-mitoDsRed (Chen et al., 2005, J Biol Chem, 280:26185-26192). Laser confocal fluorescence was excited with 561 nm (MitoTracker Green, GFP, FITC), 637 nm (TMRE, LysoTracker Red, mcherry-Parkin, MitoTracker Orange) or 408 nm (Blue Hoechst) laser diodes. Image analysis—Mitochondrial aspect ratio was calculated using automated edge detection and Image J software (Song et al., 2015, Cell Metab, 21:273-285). Mitochondrial depolarization was calculated as % of green mitochondria visualized on MitoTracker Green and TMRE merged images, expressed as green/(green+yellow mitochondria)×100. Parkin aggregation was calculated as % of cells with mitochondrial clumping of mcherry-Parkin (Song et al., 2015, Cell Metab, 21:273-285). […]

[1] = test system: Mfn null MEFs expressing Mfn2 K109A or Mfn2 AA; experiment: TAT-minipeptides in Mfn null MEFs expressing Mfn2 mutants; type: cell-based, murine; conditions: for mitochondrial morphology: Mfn null MEFs expressing Mfn2 AA
From the text: The efficacy of the minipeptides to correct mitochondrial abnormalities in Mfn null MEFs was further evaluated. In this experiment, several Mfn2 mutants having well-characterized and diverse functional profiles were introduced into Mfn null MEFs. As shown above, mitochondria of MEFs lacking Mfn1 and Mfn2 are highly fragmented. Adenoviral reintroduction of WT Mfn2 corrected dysmorphology in Mfn null MEFs and was required for TAT minipeptides to alter mitochondrial fusion in these cells (FIGS. 12A-12B). By contrast, adenoviral expression of mouse Mfn2 K109A, a GTPase defective mutant (Detmer and Chan, 2007, J Cell Biol, 176:405-414), had no effect on mitochondrial fragmentation in Mfn null MEFs. […] Mitochondrial morphometry in Mfn null MEFs expressing fusion-impaired Mfn2 EE, which has glutamate substitutions to mimic phosphorylation at Mfn2 T111 and […], was more variable (FIG. 12A-12B).

human Mfn2 = biological target: T1, human Mfn2 (Homo sapiens, UniProt O95140); experiment: Mfn2 GTPase assay; type: biochemical; design: purchased OriGene; conditions: 1 M peptide 15 minutes, then 0.5 mM GTP 1 hour 37° C.; data not shown
T1 sequence (O95140 1-757): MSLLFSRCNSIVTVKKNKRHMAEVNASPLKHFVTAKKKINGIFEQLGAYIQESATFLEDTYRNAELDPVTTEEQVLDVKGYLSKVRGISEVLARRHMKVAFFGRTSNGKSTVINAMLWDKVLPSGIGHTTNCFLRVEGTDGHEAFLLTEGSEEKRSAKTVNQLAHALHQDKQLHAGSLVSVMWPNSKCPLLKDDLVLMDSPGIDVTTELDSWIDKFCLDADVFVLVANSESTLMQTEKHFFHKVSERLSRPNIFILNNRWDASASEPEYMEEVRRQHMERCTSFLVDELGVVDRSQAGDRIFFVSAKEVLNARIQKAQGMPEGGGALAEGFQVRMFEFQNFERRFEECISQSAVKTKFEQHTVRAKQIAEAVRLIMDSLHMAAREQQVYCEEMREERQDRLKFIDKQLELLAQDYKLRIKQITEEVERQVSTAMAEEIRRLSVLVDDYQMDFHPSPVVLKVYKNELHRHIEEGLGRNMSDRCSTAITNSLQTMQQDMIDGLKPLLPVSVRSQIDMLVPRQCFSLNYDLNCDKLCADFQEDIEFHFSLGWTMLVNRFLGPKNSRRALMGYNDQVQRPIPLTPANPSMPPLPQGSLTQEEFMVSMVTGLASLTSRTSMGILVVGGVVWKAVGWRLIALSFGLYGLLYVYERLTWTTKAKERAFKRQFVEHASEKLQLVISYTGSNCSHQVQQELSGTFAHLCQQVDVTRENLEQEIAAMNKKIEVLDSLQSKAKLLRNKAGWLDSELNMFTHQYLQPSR
Procedure: Minipeptide effects on Mfn2 GTPase activity were evaluated using a modification of a previously described method (Qi X et al., 2013, J Cell Sci 126:789-802). Briefly, recombinant Mfn2 (100 ng, OriGene, Rockville, Md.) was incubated with […] control TAT peptide, TAT-367-384Gly, or TAT-398-418Gly for 15 minutes prior to addition of 0.5 mM GTP for 1 hour at 37° C. GTPase activity relative to no-peptide control was measured using a colorimetric GTPase assay kit (Novus Biologicals, Littleton, Colo.) following the manufacturer's instructions.

[2] = Mfn null MEFs expressing only Mfn2 K109A

| Sequence | rate of mitochondrial content mixing (mitochondrial fusion) (MEFs) | mitochondrial morphology [1] | mitochondrial aspect ratio / mitochondrial pathology [1, 2] | mitochondrial clumping [1, 2] | Mfn2 GTPase activity (human Mfn2) |
| --- | --- | --- | --- | --- | --- |
| QIAEAVRGIMDSLHMAARGGYGRKKRRQRRR [TAT-367-384Gly] | more than doubled | mitochondrial hyper-elongation | did not correct mitochondrial pathology | mitochondrial clumping induced | without altering Mfn2 GTPase activity |
| QDRLKFIDKQGELLAQDYKLRGGYGRKKRRQRRR [TAT-398-418Gly] | completely suppressed mitochondrial fusion | mitochondrial shortening |  |  | without altering Mfn2 GTPase activity |

From US10578610B2, “Peptide regulators of mitochondrial fusion and methods of use” (priority 2016, dated 2020)
